{"source": "paper PMC10600247", "about": "“Impact of C- and N-terminal protection on the stability, metal chelation and antimicrobial properties of calcitermin” (Scientific Reports, 2023)", "key": {"E. coli (ATCC 25922)": {"test_system": "E. coli (ATCC 25922)", "assay": "In vitro anti-E. coli CFU assay", "format": "cell-based, Escherichia coli", "conditions": "pH 5.4; for mean CFU number ± S.D.: per 0.1 mL", "procedure": "(§1) All microbes were grown at 37 °C in Tryptic Soy Broth (TSB; Biolife, Milan, Italy) or Tryptic Soy Agar plates (TSA, Biolife, Milan, Italy). Peptides were tested at a final concentration C = 0.128, 0.064, 0.032 mg/mL, in the presence or absence of ZnCl2 or CuCl2, at a M:L molar ratio 0.9:1. Briefly, all the microbes were expanded in TSB at 37 °C under agitation for 12 h and then sub-cultured by 1:10 dilution in TSB under the same conditions until reaching OD600nm = 0.3–0.4, as measured by spectrophotometric reading using a GENESYS 10S UV–Vis spectrophotometer (Thermo Scientific, Milan, Italy), corresponding to 0.9–1.2 × 10^7 colony forming units (CFU) per mL, 1.5–2 × 10^8 CFU/mL and 2.4–3.2 × 10^8 CFU/mL, for C. albicans, S. aureus and E. coli respectively. The cultures were then centrifuged at 4500 rpm for 10 min in a SL 8 centrifuge (TX-150 Rotor) (Thermo Scientific, Milan, Italy), and the cellular pellets were washed with PBS pH 5.4. Pelletized cultures were then suspended in 10 mL of PBS pH 5.4, then the suspensions were diluted to a final concentration of 10^4 CFU/mL. Aliquots of 100 µl (corresponding to 10^3 CFU) were seeded in each well of a 96-wells plate. 3 µl of TSB at pH 5.4 were added to each well to obtain a final 1.5% TSB concentration in the culture medium. Peptides were serially diluted in PBS pH 5.4 to C = 0.257, 0.128, and 0.064 mg/mL. ZnCl2 and CuCl2 solutions were added where requested to obtain a M:L ratio 0.9:1. 100 µl of the prepared peptides ± ZnCl2/CuCl2 solutions were then added to each well, obtaining the final 0.128, 0.064 and 0.032 mg/mL peptide concentrations in a total 0.2 mL volume. PBS alone and PBS + ZnCl2/CuCl2 solutions were included as controls. The plates were incubated at 37 °C on a platform rocker with slow stirring for 3 and 24 h. At the end of the incubation times, 100 µl aliquots were taken from each sample and diluted in PBS pH 5.4 to be seeded on TSA plates. Specifically, aliquots were diluted 1:10 at 3 h, and 1:200, 1:100,000 and 1:10 at 24 h, for C. albicans, E. coli, and S. aureus respectively. After incubation for 24 h at 37 °C, grown CFUs were enumerated. Samples were assayed in triplicate in two independent experiments. Student’s t-test was used for the evaluation of significance in biological tests; a p value ≤ 0.05 was considered significant."}, "S. aureus (ATCC 25293)": {"test_system": "S. aureus (ATCC 25293)", "assay": "In vitro anti-S. aureus CFU assay", "format": "cell-based, Staphylococcus aureus", "conditions": "3 h, pH 5.4; for mean CFU number ± S.D.: per 0.1 mL", "procedure": "as §1"}, "[1]": {"conditions": "peptide 0.032 mg/mL + CuCl2 (0.9:1), 24 h"}, "[2]": {"conditions": "peptide 0.032 mg/mL + ZnCl2 (0.9:1), 24 h"}, "[3]": {"conditions": "peptide 0.064 mg/mL + CuCl2 (0.9:1), 24 h"}, "[4]": {"conditions": "peptide 0.064 mg/mL + ZnCl2 (0.9:1), 24 h"}, "[5]": {"conditions": "peptide 0.128 mg/mL + ZnCl2 (0.9:1), 24 h"}, "[6]": {"conditions": "peptide alone 0.032 mg/mL, 24 h"}, "[7]": {"conditions": "peptide alone 0.064 mg/mL, 24 h"}, "[8]": {"conditions": "peptide alone 0.128 mg/mL, 24 h"}, "[9]": {"conditions": "peptide 0.032 mg/mL + CuCl2 (0.9:1)"}, "[10]": {"conditions": "peptide 0.032 mg/mL + ZnCl2 (0.9:1)"}, "[11]": {"conditions": "peptide 0.064 mg/mL + CuCl2 (0.9:1)"}, "[12]": {"conditions": "peptide 0.064 mg/mL + ZnCl2 (0.9:1)"}}, "note": "Residues, ends and D or L forms follow the SMILES beside them.", "data": [{"compound": "CC[C@H](C)[C@H](NC(=O)[C@H](C)NC(=O)[C@@H](N)C(C)C)C(=O)N[C@@H](C)C(=O)N[C@@H](CC(C)C)C(=O)N[C@@H](CCCCN)C(=O)N[C@@H](C)C(=O)N[C@@H](C)C(=O)N[C@@H](Cc1c[nH]cn1)C(=O)N[C@@H](Cc1ccc(O)cc1)C(=O)N[C@@H](Cc1c[nH]cn1)C(=O)N[C@H](C(=O)N[C@@H](Cc1c[nH]cn1)C(=O)N[C@@H](CCCCN)C(=O)N[C@@H](CCC(=O)O)C(=O)O)[C@@H](C)O", "note": "[WT, VAIALKAAHYHTHKE, reference compound] (H-VAIALKAAHYHTHKE-OH)", "values": [{"measurement": "CFU decrease/increase with respect to untreated controls", "setting": "E. coli (ATCC 25922); peptide 0.032 mg/mL + CuCl2 (0.9:1), 3 h, listed as WT calcitermin", "result": -38, "unit": "%"}, {"measurement": "mean CFU number ± S.D.", "setting": "E. coli (ATCC 25922); peptide 0.032 mg/mL + CuCl2 (0.9:1), 3 h", "result": "505 ± 26", "unit": "CFU"}, {"measurement": "CFU decrease/increase with respect to untreated controls", "setting": "E. coli (ATCC 25922); [1]", "result": -21, "unit": "%"}, {"measurement": "mean CFU number ± S.D.", "setting": "E. coli (ATCC 25922); [1]", "result": "191 ± 23", "unit": "CFU"}, {"measurement": "CFU decrease/increase with respect to untreated controls", "setting": "E. coli (ATCC 25922); peptide 0.032 mg/mL + ZnCl2 (0.9:1), 3 h, listed as WT calcitermin", "result": -38, "unit": "%"}, {"measurement": "mean CFU number ± S.D.", "setting": "E. coli (ATCC 25922); peptide 0.032 mg/mL + ZnCl2 (0.9:1), 3 h", "result": "499 ± 104", "unit": "CFU"}, {"measurement": "CFU decrease/increase with respect to untreated controls", "setting": "E. coli (ATCC 25922); [2]", "result": -7, "unit": "%"}, {"measurement": "mean CFU number ± S.D.", "setting": "E. coli (ATCC 25922); [2]", "result": "224 ± 8", "unit": "CFU"}, {"measurement": "CFU decrease/increase with respect to untreated controls", "setting": "E. coli (ATCC 25922); peptide 0.064 mg/mL + CuCl2 (0.9:1), 3 h, listed as WT calcitermin", "result": -56, "unit": "%"}, {"measurement": "mean CFU number ± S.D.", "setting": "E. coli (ATCC 25922); peptide 0.064 mg/mL + CuCl2 (0.9:1), 3 h", "result": "360 ± 97", "unit": "CFU"}, {"measurement": "CFU decrease/increase with respect to untreated controls", "setting": "E. coli (ATCC 25922); [3]", "result": -11, "unit": "%"}, {"measurement": "mean CFU number ± S.D.", "setting": "E. coli (ATCC 25922); [3]", "result": "215 ± 17", "unit": "CFU"}, {"measurement": "CFU decrease/increase with respect to untreated controls", "setting": "E. coli (ATCC 25922); peptide 0.064 mg/mL + ZnCl2 (0.9:1), 3 h, listed as WT calcitermin", "result": -55, "unit": "%"}, {"measurement": "mean CFU number ± S.D.", "setting": "E. coli (ATCC 25922); peptide 0.064 mg/mL + ZnCl2 (0.9:1), 3 h", "result": "368 ± 18", "unit": "CFU"}, {"measurement": "CFU decrease/increase with respect to untreated controls", "setting": "E. coli (ATCC 25922); [4]", "result": "+3%"}, {"measurement": "mean CFU number ± S.D.", "setting": "E. coli (ATCC 25922); [4]", "result": "249 ± 9", "unit": "CFU"}, {"measurement": "CFU decrease/increase with respect to untreated controls", "setting": "E. coli (ATCC 25922); peptide 0.128 mg/mL + CuCl2 (0.9:1), 3 h, listed as WT calcitermin", "result": -91.1, "unit": "%"}, {"measurement": "mean CFU number ± S.D.", "setting": "E. coli (ATCC 25922); peptide 0.128 mg/mL + CuCl2 (0.9:1), 3 h", "result": "72 ± 44", "unit": "CFU"}, {"measurement": "CFU decrease/increase with respect to untreated controls", "setting": "E. coli (ATCC 25922); peptide 0.128 mg/mL + CuCl2 (0.9:1), 24 h, listed as WT calcitermin", "result": -82, "unit": "%"}, {"measurement": "mean CFU number ± S.D.", "setting": "E. coli (ATCC 25922); peptide 0.128 mg/mL + CuCl2 (0.9:1), 24 h", "result": "42 ± 12", "unit": "CFU"}, {"measurement": "CFU decrease/increase with respect to untreated controls", "setting": "E. coli (ATCC 25922); peptide 0.128 mg/mL + ZnCl2 (0.9:1), 3 h, listed as WT calcitermin", "result": -91, "unit": "%"}, {"measurement": "mean CFU number ± S.D.", "setting": "E. coli (ATCC 25922); peptide 0.128 mg/mL + ZnCl2 (0.9:1), 3 h", "result": "74 ± 17", "unit": "CFU"}, {"measurement": "CFU decrease/increase with respect to untreated controls", "setting": "E. coli (ATCC 25922); [5]", "result": -8, "unit": "%"}, {"measurement": "mean CFU number ± S.D.", "setting": "E. coli (ATCC 25922); [5]", "result": "222 ± 16", "unit": "CFU"}, {"measurement": "CFU decrease/increase with respect to untreated controls", "setting": "E. coli (ATCC 25922); peptide alone 0.032 mg/mL, 3 h", "result": -12, "unit": "%"}, {"measurement": "mean CFU number ± S.D.", "setting": "E. coli (ATCC 25922); peptide alone 0.032 mg/mL, 3 h", "result": "718 ± 138", "unit": "CFU"}, {"measurement": "CFU decrease/increase with respect to untreated controls", "setting": "E. coli (ATCC 25922); [6]", "result": -7, "unit": "%"}, {"measurement": "mean CFU number ± S.D.", "setting": "E. coli (ATCC 25922); [6]", "result": "224 ± 21", "unit": "CFU"}, {"measurement": "CFU decrease/increase with respect to untreated controls", "setting": "E. coli (ATCC 25922); peptide alone 0.064 mg/mL, 3 h", "result": -19, "unit": "%"}, {"measurement": "mean CFU number ± S.D.", "setting": "E. coli (ATCC 25922); peptide alone 0.064 mg/mL, 3 h", "result": "659 ± 139", "unit": "CFU"}, {"measurement": "CFU decrease/increase with respect to untreated controls", "setting": "E. coli (ATCC 25922); [7]", "result": "+14%"}, {"measurement": "mean CFU number ± S.D.", "setting": "E. coli (ATCC 25922); [7]", "result": "275 ± 16", "unit": "CFU"}, {"measurement": "CFU decrease/increase with respect to untreated controls", "setting": "E. coli (ATCC 25922); peptide alone 0.128 mg/mL, 3 h", "result": "+42%"}, {"measurement": "mean CFU number ± S.D.", "setting": "E. coli (ATCC 25922); peptide alone 0.128 mg/mL, 3 h", "result": "1155 ± 270", "unit": "CFU"}, {"measurement": "CFU decrease/increase with respect to untreated controls", "setting": "E. coli (ATCC 25922); [8]", "result": -3, "unit": "%"}, {"measurement": "mean CFU number ± S.D.", "setting": "E. coli (ATCC 25922); [8]", "result": "233 ± 10", "unit": "CFU"}, {"measurement": "CFU decrease/increase with respect to untreated controls", "setting": "S. aureus (ATCC 25293); [9]", "result": "+30%"}, {"measurement": "mean CFU number ± S.D.", "setting": "S. aureus (ATCC 25293); [9]", "result": "209 ± 44", "unit": "CFU"}, {"measurement": "CFU decrease/increase with respect to untreated controls", "setting": "S. aureus (ATCC 25293); [10]", "result": "+5%"}, {"measurement": "mean CFU number ± S.D.", "setting": "S. aureus (ATCC 25293); [10]", "result": "169 ± 40", "unit": "CFU"}, {"measurement": "CFU decrease/increase with respect to untreated controls", "setting": "S. aureus (ATCC 25293); [11]", "result": "+9%"}, {"measurement": "mean CFU number ± S.D.", "setting": "S. aureus (ATCC 25293); [11]", "result": "175 ± 30", "unit": "CFU"}, {"measurement": "CFU decrease/increase with respect to untreated controls", "setting": "S. aureus (ATCC 25293); [12]", "result": -14, "unit": "%"}, {"measurement": "mean CFU number ± S.D.", "setting": "S. aureus (ATCC 25293); [12]", "result": "139 ± 20", "unit": "CFU"}, {"measurement": "CFU decrease/increase with respect to untreated controls", "setting": "S. aureus (ATCC 25293); peptide 0.128 mg/mL + CuCl2 (0.9:1)", "result": "+42%"}]}]}
